Test results: US6946297B2, “System for stabilizing samples” (priority 1999, dated 2005)
Values joined by “and” are separate entries in the source; they are usually repeats but may differ in a detail not shown here. Equal values may be shown once.

Experiments:
Type in all cases: cell-based
Escherichia coli = test: Survival of organisms in inoculated urine with preservative components, 24 hours at room temperature; design: key to Survival value esco: 24 h count / control count; 1 = no change, 0.1 = 1-log decrease
Experimental: (§1) Antimicrobial activity for each active ingredient in the Chemistat I formulations was first determined for representative organisms listed in Table I. A culture for each organism of interest on blood agar was incubated at 36° C. overnight. About two to three colonies of the organism were transferred via sterile swab from the blood agar culture into a 5 ml Mueller-Hinton broth culture tube, which was then incubated on a rotator for about two to three hours at 36° C. Using a spectrophotometer set at a wavelength of 630 nm, the turbidity of broth culture was adjusted by the addition of Mueller-Hinton broth to an optical density equivalent to approximately 1×10^8 colony forming units (cfu)/ml to form an inoculum solution. An aliquot of the inoculum solution was plated onto blood agar to determine the actual control organism count. For each component listed in Table II, the component was added to filter-sterilized pooled normal urine at the concentration given in Table II to form a test sample. The test sample was then inoculated with an aliquot of the inoculum solution providing a final organism count of approximately 1×10^6 cfu/ml of test sample. Immediately after thorough mixing, an aliquot of the test sample was removed and serially diluted in PBS, and serial dilutions were plated onto blood agar to determine the Time Zero organism count. The inoculated plates were incubated at 36° C., and organism counts were recorded after 18-24 hours. After incubating the test sample for 24 hours at room temperature, an aliquot of the test sample was again removed, serially diluted in PBS and plated onto blood agar. After incubating for 18-24 hours at 36° C., organism counts were obtained. The organism count obtained after 24 hours incubation at room temperature was divided by the control organism count to provide the survival value of each organism as recorded in Table II. With respect to changes in microbial count, a survival value of 1 represents no change; a survival value of 0.1 indicates a 1-log decrease; a survival value of 10 indicates a 1-log increase; and a survival value of 0.000 represents a decrease of greater than or equal to 3-logs. In comparison, the lower the survival value, the greater the component's capacity for controlling organism growth.

Klebsiella pneumoniae = test: as above
Experimental: as §1

Proteus vulgaris = test: as above
Experimental: as §1

Pseudomonas aeruginosa = test: as above; conditions: for Concentration with cidal activity against Pseudomonas aeruginosa / Concentration inhibitory against Pseudomonas aeruginosa (ineffective up to = >): component alone
Experimental: as §1

Enterococcus faecalis = test: as above; design: key to Survival value enfa: 24 h count / control count; 1 = no change, 0.1 = 1-log decrease; conditions: for Concentration with cidal activity against Enterococcus faecalis / Concentration inhibitory against Enterococcus faecalis (ineffective up to = >): component alone
Experimental: as §1

Candida albicans = test: as above; design: key to Survival value caal: 24 h count / control count; 1 = no change, 0.1 = 1-log decrease; conditions: for Concentration with cidal activity against Candida albicans / Concentration inhibitory against Candida albicans (ineffective up to = >): component alone
Experimental: as §1

Enterobacter aerogenes = test: as above; design: key to Survival value enae: 24 h count / control count; 1 = no change, 0.1 = 1-log decrease; conditions: for Concentration with cidal activity against Enterobacter aerogenes / Concentration inhibitory against Enterobacter aerogenes (ineffective up to = >): component alone
Experimental: as §1

[1] = test system: microorganisms of interest; test: Antimicrobial (cidal) activity against the organisms of interest taken together; conditions: component alone
Experimental: as §1, with “With respect to changes in microbial count, a survival value of 1 represents no change; a survival value of 0.1 indicates a 1-log decrease; a survival value of 10 indicates a 1-log increase; and a survival value of 0.000 represents a decrease of greater than or equal to 3-logs. In comparison, the lower the survival value, the greater the component's capacity for controlling organism growth.” left out

[2] = single component at 0.005 mg/ml
[3] = single component at 0.0075 mg/ml

SMILES: OCCc1ccccc1 [2-Phenyl ethanol, 2-phenyl ethanol]
- Concentration with cidal activity against Escherichia coli (Escherichia coli; component alone): 4 μl/ml
- Survival value esco (Escherichia coli; single component at 1 μl/ml): tntc
- Survival value esco (Escherichia coli; single component at 1.8 μl/ml): tntc
- Survival value esco (Escherichia coli; single component at 2.5 μl/ml): 0.245
- Survival value esco (Escherichia coli; single component at 4 μl/ml): 0.000
- Survival value esco (Escherichia coli; single component at 10 μl/ml): 0.000
- Survival value klpn (Klebsiella pneumoniae; single component at 1.8 μl/ml): tntc
- Survival value prvu (Proteus vulgaris; single component at 1.8 μl/ml): tntc
- Concentration with cidal activity against Pseudomonas aeruginosa (Pseudomonas aeruginosa): 5 μl/ml
- Survival value psae (Pseudomonas aeruginosa; single component at 1 μl/ml): 4.819
- Survival value psae (Pseudomonas aeruginosa; single component at 1.8 μl/ml): tntc
- Survival value psae (Pseudomonas aeruginosa; single component at 2.5 μl/ml): 0.199
- Survival value psae (Pseudomonas aeruginosa; single component at 4 μl/ml): 0.019
- Survival value psae (Pseudomonas aeruginosa; single component at 5 μl/ml): 0.000
- Survival value psae (Pseudomonas aeruginosa; single component at 10 μl/ml): 0.000
- Concentration with cidal activity against Enterococcus faecalis (Enterococcus faecalis): > 10 μl/ml
- Survival value enfa (Enterococcus faecalis; single component at 1 μl/ml): tntc
- Survival value enfa (Enterococcus faecalis; single component at 1.8 μl/ml): tntc
- Survival value enfa (Enterococcus faecalis; single component at 2.5 μl/ml): tntc
- Survival value enfa (Enterococcus faecalis; single component at 4 μl/ml): tntc
- Survival value enfa (Enterococcus faecalis; single component at 5 μl/ml): tntc
- Survival value enfa (Enterococcus faecalis; single component at 10 μl/ml): 1.495
- Concentration with cidal activity against Candida albicans (Candida albicans): 10 μl/ml
- Survival value caal (Candida albicans; single component at 1.8 μl/ml): tntc
- Survival value caal (Candida albicans; single component at 4 μl/ml): 1.081
- Survival value caal (Candida albicans; single component at 10 μl/ml): 0.000
- Concentration with cidal activity against Enterobacter aerogenes (Enterobacter aerogenes): 10 μl/ml
- Survival value enae (Enterobacter aerogenes; single component at 1 μl/ml): tntc
- Survival value enae (Enterobacter aerogenes; single component at 2.5 μl/ml): 0.092
- Survival value enae (Enterobacter aerogenes; single component at 4 μl/ml): 0.244
- Survival value enae (Enterobacter aerogenes; single component at 5 μl/ml): 0.440
- Survival value enae (Enterobacter aerogenes; single component at 10 μl/ml): 0.000
- Concentration required for cidal action [1]: greater than 2.5 μl/ml

SMILES: OB(O)O [Boric Acid, boric acid, reference compound]
- Antimicrobial action against Escherichia coli, in words (Escherichia coli; concentrations as in label): ineffective
- Survival value esco (Escherichia coli; single component at 5 mg/ml): 0.770
- Antimicrobial action against Pseudomonas aeruginosa, in words (Pseudomonas aeruginosa; concentrations as in label): ineffective
- Survival value psae (Pseudomonas aeruginosa; single component at 5 mg/ml): 1.157
- Antimicrobial action against Enterococcus faecalis, in words (Enterococcus faecalis; concentrations as in label): ineffective
- Survival value enfa (Enterococcus faecalis; single component at 5 mg/ml): 2.647
- Antimicrobial action against Enterobacter aerogenes, in words (Enterobacter aerogenes; concentrations as in label): ineffective
- Survival value enae (Enterobacter aerogenes; single component at 5 mg/ml): 1.061

SMILES: [H]/N=C(\N/C(=N/[H])NCCCCCCNC(=N)NC(=N)Nc1ccc(Cl)cc1)Nc1ccc(Cl)cc1 [Chlorhexidine, chlorhexidine, reference compound]
- Concentration with cidal activity against Escherichia coli (Escherichia coli; component alone): 0.0075 mg/mL
- Survival value esco (Escherichia coli; [2]): 0.003
- Survival value esco (Escherichia coli; [3]): 0.000
- Survival value esco (Escherichia coli; single component at 0.01 mg/ml): 0.000
- Survival value esco (Escherichia coli; single component at 0.02 mg/ml): 0.000
- Survival value esco (Escherichia coli; single component at 0.05 mg/ml): 0.000
- Survival value esco (Escherichia coli; single component at 0.1 mg/ml): 0.000
- Survival value esco (Escherichia coli; single component at 0.8 mg/ml): 0.000
- Concentration with cidal activity against Klebsiella pneumoniae (Klebsiella pneumoniae; component alone): 0.02 mg/mL
- Survival value klpn (Klebsiella pneumoniae; single component at 0.02 mg/ml): 0.000
- Concentration with cidal activity against Proteus vulgaris (Proteus vulgaris; component alone): 0.02 mg/mL
- Survival value prvu (Proteus vulgaris; single component at 0.02 mg/ml): 0.000
- Concentration with cidal activity against Pseudomonas aeruginosa (Pseudomonas aeruginosa): > 0.05 mg/mL
- Survival value psae (Pseudomonas aeruginosa; [2]): tntc
- Survival value psae (Pseudomonas aeruginosa; [3]): 4.049
- Survival value psae (Pseudomonas aeruginosa; single component at 0.01 mg/ml): 0.277
- Survival value psae (Pseudomonas aeruginosa; single component at 0.05 mg/ml): 0.046
- Concentration with cidal activity against Enterococcus faecalis (Enterococcus faecalis): 0.05 to 0.8 mg/mL
- Survival value enfa (Enterococcus faecalis; [2]): 1.115
- Survival value enfa (Enterococcus faecalis; [3]): 0.598
- Survival value enfa (Enterococcus faecalis; single component at 0.01 mg/ml): 0.520
- Survival value enfa (Enterococcus faecalis; single component at 0.02 mg/ml): 0.179 and 0.141
- Survival value enfa (Enterococcus faecalis; single component at 0.05 mg/ml): 0.000
- Survival value enfa (Enterococcus faecalis; single component at 0.1 mg/ml): 0.561
- Survival value enfa (Enterococcus faecalis; single component at 0.8 mg/ml): 0.000
- Concentration with cidal activity against Candida albicans (Candida albicans): 0.0075 mg/mL
- Survival value caal (Candida albicans; [2]): 5.308
- Survival value caal (Candida albicans; [3]): 0.000
- Survival value caal (Candida albicans; single component at 0.02 mg/ml): 0.000
- Survival value caal (Candida albicans; single component at 0.05 mg/ml): 0.000
- Survival value caal (Candida albicans; single component at 0.1 mg/ml): 0.000
- Survival value caal (Candida albicans; single component at 0.8 mg/ml): 0.000
- Concentration with cidal activity against Enterobacter aerogenes (Enterobacter aerogenes): 0.01 mg/mL
- Survival value enae (Enterobacter aerogenes; [2]): tntc
- Survival value enae (Enterobacter aerogenes; [3]): 6.098
- Survival value enae (Enterobacter aerogenes; single component at 0.01 mg/ml): 0.000
- Survival value enae (Enterobacter aerogenes; single component at 0.05 mg/ml): 0.000
- Concentration required for cidal action [1]: greater than or equal to 0.01 mg/ml

SMILES: CCOC(=O)c1ccc(O)cc1 [Ethyl parahydroxybenzoate, ethyl parahydroxybenzoate]
- Concentration with cidal activity against Escherichia coli (Escherichia coli; component alone): 1 mg/mL
- Survival value esco (Escherichia coli; single component at 0.5 mg/ml): tntc
- Survival value esco (Escherichia coli; single component at 1 mg/ml): 0.000
- Concentration inhibitory against Klebsiella pneumoniae (ineffective up to = >) (Klebsiella pneumoniae; component alone): > 1 mg/mL
- Survival value klpn (Klebsiella pneumoniae; single component at 0.5 mg/ml): tntc
- Concentration inhibitory against Proteus vulgaris (ineffective up to = >) (Proteus vulgaris; component alone): > 1 mg/mL
- Survival value prvu (Proteus vulgaris; single component at 0.5 mg/ml): tntc
- Concentration inhibitory against Pseudomonas aeruginosa (ineffective up to = >) (Pseudomonas aeruginosa): > 1 mg/mL
- Survival value psae (Pseudomonas aeruginosa; single component at 0.5 mg/ml): tntc
- Survival value psae (Pseudomonas aeruginosa; single component at 1 mg/ml): tntc
- Concentration inhibitory against Enterococcus faecalis (ineffective up to = >) (Enterococcus faecalis): > 1 mg/mL
- Survival value enfa (Enterococcus faecalis; single component at 0.5 mg/ml): tntc
- Survival value enfa (Enterococcus faecalis; single component at 1 mg/ml): tntc
- Concentration inhibitory against Candida albicans (ineffective up to = >) (Candida albicans): 0.5 mg/mL
- Survival value caal (Candida albicans; single component at 0.5 mg/ml): 0.362
- Concentration inhibitory against Enterobacter aerogenes (ineffective up to = >) (Enterobacter aerogenes): 1 mg/mL
- Survival value enae (Enterobacter aerogenes; single component at 1 mg/ml): 0.208

SMILES: CCC(=O)[O-].[Na+] [Sodium propionate, sodium propionate]
- Concentration inhibitory against Escherichia coli (ineffective up to = >) (Escherichia coli; component alone): > 10 mg/mL
- Survival value esco (Escherichia coli; single component at 5 mg/ml): tntc
- Survival value esco (Escherichia coli; single component at 10 mg/ml): tntc
- Concentration inhibitory against Klebsiella pneumoniae (ineffective up to = >) (Klebsiella pneumoniae; component alone): > 10 mg/mL
- Survival value klpn (Klebsiella pneumoniae; single component at 5 mg/ml): tntc
- Concentration inhibitory against Proteus vulgaris (ineffective up to = >) (Proteus vulgaris; component alone): > 10 mg/mL
- Survival value prvu (Proteus vulgaris; single component at 5 mg/ml): tntc
- Concentration inhibitory against Pseudomonas aeruginosa (ineffective up to = >) (Pseudomonas aeruginosa): 10 mg/mL
- Survival value psae (Pseudomonas aeruginosa; single component at 5 mg/ml): tntc
- Survival value psae (Pseudomonas aeruginosa; single component at 10 mg/ml): 0.341
- Concentration inhibitory against Enterococcus faecalis (ineffective up to = >) (Enterococcus faecalis): 10 mg/mL
- Survival value enfa (Enterococcus faecalis; single component at 5 mg/ml): tntc
- Survival value enfa (Enterococcus faecalis; single component at 10 mg/ml): 2.702
- Concentration inhibitory against Candida albicans (ineffective up to = >) (Candida albicans): > 10 mg/mL
- Survival value caal (Candida albicans; single component at 5 mg/ml): tntc
- Concentration inhibitory against Enterobacter aerogenes (ineffective up to = >) (Enterobacter aerogenes): > 10 mg/mL
